Test results as given in ChEMBL document CHEMBL1147151, “In vitro optimization of non-small cell lung cancer activity with troxacitabine, L-1,3-dioxolane-cytidine, prodrugs” (J Med Chem, 2007).

Assays:
A549 = assay: Cytotoxicity against A549 cells after 72 hrs by SRB assay; format: functional, cell-based; details: Homo sapiens, A549, 72 h
SW1573 = assay: Cytotoxicity against SW1573 cells after 72 hrs by SRB assay; format: functional, cell-based; details: Homo sapiens, SW1573, 72 h

Compound | IC50 (A549) [µM] | IC50 (SW1573) [µM]
CCCCCCCCCCCCCCCC(=O)Nc1ccn([C@@H]2CO[C@H](CO)O2)c(=O)n1 | 0.004 | 0.02
O=C(Nc1ccn([C@@H]2CO[C@H](CO)O2)c(=O)n1)c1ccc(Br)cc1 | 4.53 | 8.87
O=C(Nc1ccn([C@@H]2CO[C@H](CO)O2)c(=O)n1)c1ccccc1 | 8.53 | 13.7
O=C(Nc1ccn([C@@H]2CO[C@H](CO)O2)c(=O)n1)c1ccc(Cl)cc1Cl | 9.83 | 14.3
O=C(Nc1ccn([C@@H]2CO[C@H](CO)O2)c(=O)n1)c1ccc(F)cc1 | 8.67 | 15.3
CCCCC(=O)Nc1ccn([C@@H]2CO[C@H](CO)O2)c(=O)n1 | 5.23 | 9.13
O=C(Nc1ccn([C@@H]2CO[C@H](CO)O2)c(=O)n1)C1CC1 | 18.7 | 22
Nc1ccn([C@@H]2CO[C@H](CO)O2)c(=O)n1 [TROXACITABINE] | 0.68 | 2.3
CCCCCCCCCCCCCCCCCCCCCC(=O)Nc1ccn([C@@H]2CO[C@H](CO)O2)c(=O)n1 | 0.5 | 0.9
Nc1ccn([C@@H]2O[C@H](CO)[C@@H](O)C2(F)F)c(=O)n1 [GEMCITABINE] | 13.1 | 8.3
CCCCCCCCCCCC(=O)Nc1ccn([C@@H]2CO[C@H](CO)O2)c(=O)n1 | 0.015 | 0.03
COc1ccc(C(=O)Nc2ccn([C@@H]3CO[C@H](CO)O3)c(=O)n2)cc1 | 3.5 | 10
CCCCCCCCCCCCCCCCCC(=O)Nc1ccn([C@@H]2CO[C@H](CO)O2)c(=O)n1 | 0.025 | 0.125
CCCCCCCCC(=O)Nc1ccn([C@@H]2CO[C@H](CO)O2)c(=O)n1 | 0.046 | 0.276
CCCCCCC(=O)Nc1ccn([C@@H]2CO[C@H](CO)O2)c(=O)n1 | 1.04 | 2.4
O=C(Nc1ccn([C@@H]2CO[C@H](CO)O2)c(=O)n1)c1ccc(Cl)cc1 | 0.41 | 2.77
CC(=O)Nc1ccn([C@@H]2CO[C@H](CO)O2)c(=O)n1 | 6.87 | 10.7
CCCCCCCCCCCCCCCCCCCC(=O)Nc1ccn([C@@H]2CO[C@H](CO)O2)c(=O)n1 | 0.03 | 0.15
CCCCCCCCCC(=O)Nc1ccn([C@@H]2CO[C@H](CO)O2)c(=O)n1 | 0.024 | 0.04
CCCC(=O)Nc1ccn([C@@H]2CO[C@H](CO)O2)c(=O)n1 | 6.6 | 8.07
O=C(Nc1ccn([C@@H]2CO[C@H](CO)O2)c(=O)n1)C1CCCCC1 | 7.37 | 14
O=C(Nc1ccn([C@@H]2CO[C@H](CO)O2)c(=O)n1)C1CCCC1 | 2.97 | 8.8
